From patent US12509466B2, “Methods and compounds for treating paramyxoviridae virus infections” (Gilead Sciences, Inc., priority 2010, dated 2025)
Where two headings read alike, the source gives them in different places.

Assays:
RSV strain A2 = assay: Anti-RSV cytoprotection assay in Hep2 cells; type: cell-based; conditions: human respiratory syncytial virus, HEp-2, 96 h
Method: Antiviral activity against RSV is determined using an in vitro cytoprotection assay in Hep2 cells. […] The method used is similar to methods previously described in published literature (Chapman et al., Antimicrob Agents Chemother. 2007, 51(9):3346-53.)
Hep2 cells are obtained from ATCC (Manassas, VI) and maintained in MEM media supplemented with 10% fetal bovine serum and penicillin/streptomycin. Cells are passaged twice a week and kept at subconfluent stage. Commercial stock of RSV strain A2 (Advanced Biotechnologies, Columbia, MD) is titered before compound testing to determine the appropriate dilution of the virus stock that generates desirable cytopathic effect in Hep2 cells.
For antiviral tests, Hep2 cells are seeded into 96-well plates 24 hours before the assay at a density of 3,000 cells/well. On a separate 96 well plate, compounds to be tested are serially diluted in cell culture media. Eight concentrations in 3-fold serial dilution increments are prepared for each tested compound and 100 uL/well of each dilution is transferred in duplicate onto plates with seeded Hep2 cells. Subsequently, appropriate dilution of virus stock previously determined by titration is prepared in cell culture media and 100 uL/well is added to test plates containing cells and serially diluted compounds. Each plate includes three wells of infected untreated cells and three wells of uninfected cells that served as 0% and 100% virus inhibition control, respectively. Following the infection with RSV, testing plates are incubated for 4 days in a tissue culture incubator. After the incubation, RSV-induced cytopathic effect is determined using a Cell TiterGlo reagent (Promega, Madison, WI) followed by a luminescence read-out. The percentage inhibition is calculated for each tested concentration relative to the 0% and 100% inhibition controls and the EC50 value for each compound is determined by non-linear regression as a concentration inhibiting the RSV-induced cytopathic effect by 50%. Ribavirin (purchased from Sigma, St. Louis, MO) is used as a positive control for antiviral activity.

[1] = Compound cytotoxicity in Vero cells (MTS); type: cell-based; conditions: African green monkey (Cercopithecus aethiops), concentration resulting in 50% cell death, read-out: TC50
Method: (§1) The Parainfluenza Cytoprotection assay uses Vero cells and Parainfluenza 3 strain C 243. Briefly virus and cells are mixed in the presence of test compound and incubated for 7 days. […] Therefore, antiviral effect or cytoprotection is observed when compounds prevent virus replication. Each assay plate contains cell control wells (cells only), virus control wells (cells plus virus), compound toxicity control wells (cells plus compound only), compound colorimetric control wells (compound only), as well as experimental wells (compound plus cells plus virus). Cytoprotection and compound cytotoxicity are assessed by MTS (CellTiter®96 Reagent, Promega, Madison WI) dye reduction. […]
At assay termination (7 days post-infection), the assay plates are stained with the soluble tetrazolium-based dye MTS (3-(4,5-dimethylthiazol-2-yl)-5-(3-carboxymethoxyphenyl)-2-(4-sulfophenyl)-2H-tetrazolium; CellTiter®96 Reagent, Promega) to determine cell viability and quantify compound toxicity. MTS is metabolized by the mitochondrial enzymes of metabolically active cells to yield a soluble formazan product, allowing the rapid quantitative analysis of cell viability and compound cytotoxicity. […]

[2] = Cytotoxicity in uninfected Hep2 cells; type: cell-based; conditions: human, CellTiter Glo
Method: Cytotoxicity of tested compounds is determined in uninfected Hep2 cells in parallel with the antiviral activity using the cell viability reagent in a similar fashion as described before for other cell types (Cihlar et al., Antimicrob Agents Chemother. 2008, 52(2):655-65.). The same protocol as for the determination of antiviral activity is used for the measurement of compound cytotoxicity except that the cells are not infected with RSV. Instead, fresh cell culture media (100 uL/well) without the virus is added to tested plates with cells and prediluted compounds. Cells are then incubated for 4 days followed by a cell viability test using CellTiter Glo reagent and a luminescence read-out. Untreated cell and cells treated with 50 ug/mL puromycin (Sigma, St. Louis, MO) are used as 100% and 0% cell viability control, respectively. The percent of cell viability is calculated for each tested compound concentration relative to the 0% and 100% controls and the CC50 value is determined by non-linear regression as a compound concentration reducing the cell viability by 50%.

[3] = tested on: Parainfluenza 3 strain C 243; assay: Parainfluenza cytoprotection assay in Vero cells; type: cell-based; conditions: 168 h, Parainfluenza 3 strain C 243, 7 days, MTS
Method: as §1
The virus used for this assay is Parainfluenza 3 strain C 243. […] The virus is resuspended and diluted into tissue culture medium such that the amount of virus added to each well is the amount determined to give between 85 to 95% cell killing at 6-7 days post-infection.
At assay termination (7 days post-infection), the assay plates are stained with the soluble tetrazolium-based dye MTS (3-(4,5-dimethylthiazol-2-yl)-5-(3-carboxymethoxyphenyl)-2-(4-sulfophenyl)-2H-tetrazolium; CellTiter®96 Reagent, Promega) to determine cell viability and quantify compound toxicity. […]

[4] = target: T1, RSV ribonucleoprotein (RNP) complexes (Human respiratory syncytial virus A, UniProt P28887); assay: RSV RNP transcription assay; type: biochemical, RSV A2; conditions: reduction of total radiolabled transcripts by 50%, 90 minute incubation at 30° C.
T1 construct: The supernatant (S3) fraction, containing the enriched RSV RNP complexes, was collected; endogenous in cells; host or cells: HEp-2 cells infected with RSV A2; crude detergent-extracted S3 fraction
T1 sequence (P28887 whole entry, looked up, one chain of several): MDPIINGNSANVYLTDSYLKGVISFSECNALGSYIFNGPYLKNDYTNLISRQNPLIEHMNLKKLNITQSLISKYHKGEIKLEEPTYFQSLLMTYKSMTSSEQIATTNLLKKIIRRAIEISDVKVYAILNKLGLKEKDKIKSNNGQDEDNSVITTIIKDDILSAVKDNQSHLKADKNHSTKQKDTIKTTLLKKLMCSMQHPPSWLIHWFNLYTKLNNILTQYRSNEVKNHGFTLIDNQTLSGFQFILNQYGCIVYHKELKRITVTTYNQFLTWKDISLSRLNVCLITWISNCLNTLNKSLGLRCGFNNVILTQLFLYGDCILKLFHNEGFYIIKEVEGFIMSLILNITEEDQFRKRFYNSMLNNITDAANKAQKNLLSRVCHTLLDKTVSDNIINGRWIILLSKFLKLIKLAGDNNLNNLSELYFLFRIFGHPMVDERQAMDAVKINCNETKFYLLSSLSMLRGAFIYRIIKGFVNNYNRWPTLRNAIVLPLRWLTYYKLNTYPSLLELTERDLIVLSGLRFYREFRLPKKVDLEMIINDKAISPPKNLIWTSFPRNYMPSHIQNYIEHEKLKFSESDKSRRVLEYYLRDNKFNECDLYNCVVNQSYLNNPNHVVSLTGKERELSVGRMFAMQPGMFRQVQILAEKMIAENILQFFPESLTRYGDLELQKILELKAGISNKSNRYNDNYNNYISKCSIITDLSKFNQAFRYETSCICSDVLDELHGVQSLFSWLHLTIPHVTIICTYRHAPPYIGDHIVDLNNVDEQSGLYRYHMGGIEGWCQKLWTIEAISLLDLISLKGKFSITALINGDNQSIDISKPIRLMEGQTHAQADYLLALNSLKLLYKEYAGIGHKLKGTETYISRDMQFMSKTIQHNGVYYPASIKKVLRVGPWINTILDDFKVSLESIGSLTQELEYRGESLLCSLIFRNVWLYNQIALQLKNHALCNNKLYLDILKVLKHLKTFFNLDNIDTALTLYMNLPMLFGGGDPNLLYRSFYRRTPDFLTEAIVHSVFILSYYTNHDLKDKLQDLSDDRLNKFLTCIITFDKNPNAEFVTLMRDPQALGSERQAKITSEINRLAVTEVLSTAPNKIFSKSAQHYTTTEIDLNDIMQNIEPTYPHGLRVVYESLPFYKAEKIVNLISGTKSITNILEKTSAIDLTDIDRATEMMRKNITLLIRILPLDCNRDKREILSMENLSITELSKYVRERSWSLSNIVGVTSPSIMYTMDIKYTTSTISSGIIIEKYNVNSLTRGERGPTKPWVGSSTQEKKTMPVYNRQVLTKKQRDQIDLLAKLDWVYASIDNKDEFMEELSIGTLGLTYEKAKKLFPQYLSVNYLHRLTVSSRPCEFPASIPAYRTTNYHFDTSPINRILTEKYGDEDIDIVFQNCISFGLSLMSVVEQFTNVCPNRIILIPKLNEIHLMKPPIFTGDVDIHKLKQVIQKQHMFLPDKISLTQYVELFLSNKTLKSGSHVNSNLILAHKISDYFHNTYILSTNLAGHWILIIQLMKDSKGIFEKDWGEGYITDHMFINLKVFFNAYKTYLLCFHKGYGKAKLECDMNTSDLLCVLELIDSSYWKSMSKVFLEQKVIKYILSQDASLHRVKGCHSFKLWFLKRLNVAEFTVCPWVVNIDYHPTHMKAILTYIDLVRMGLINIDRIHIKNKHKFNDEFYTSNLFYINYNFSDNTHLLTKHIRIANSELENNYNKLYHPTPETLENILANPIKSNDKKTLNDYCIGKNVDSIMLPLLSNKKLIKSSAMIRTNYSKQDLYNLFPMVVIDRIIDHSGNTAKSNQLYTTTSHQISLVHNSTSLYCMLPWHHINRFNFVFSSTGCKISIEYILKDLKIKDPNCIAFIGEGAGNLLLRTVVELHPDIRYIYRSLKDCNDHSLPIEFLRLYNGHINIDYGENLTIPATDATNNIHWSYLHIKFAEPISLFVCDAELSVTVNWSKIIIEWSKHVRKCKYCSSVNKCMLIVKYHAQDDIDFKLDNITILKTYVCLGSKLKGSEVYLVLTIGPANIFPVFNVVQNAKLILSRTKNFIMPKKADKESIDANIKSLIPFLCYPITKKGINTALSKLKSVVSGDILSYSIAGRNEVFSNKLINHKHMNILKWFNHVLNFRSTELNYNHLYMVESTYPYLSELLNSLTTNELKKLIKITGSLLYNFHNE
Method: HEp-2 cells were plated at a density of 7.1×10^4 cells/cm^2 in MEM+10% fetal bovine serum (FBS) and allowed to attach overnight at 37° C. (5% CO2). Following attachment, the cells were infected with RSV A2 (MOI=5) in 35 mL MEM+2% FBS. At 20 hours post-infection, the media was replaced with MEM+2% FBS supplemented with 2 μg/mL actinomycin D and returned to 37° C. for one hour. The cells were then washed once with PBS and treated with 35 mL of PBS+250 μg/mL lyso-lecithin for one minute, after which all liquid was aspirated. The cells were harvested by scrapping them into 1.2 mL of buffer A [50 mM TRIS acetate (pH 8.0), 100 mM potassium acetate, 1 mM DTT and 2 μg/mL actinomycin D] and lysed by repeated passage through an 18 gauge needle (10 times). The cell lysate was placed in ice for 10 minutes and then centrifuged at 2400 g for 10 minutes at 4° C. The supernatant (S1) was removed and the pellet (P1) was disrupted in 600 uL of Buffer B [10 mM TRIS acetate (pH 8.0), 10 mM potassium acetate and 1.5 mM MgCl2] supplemented with 1% Triton X-100 by repeated passage through an 18 gauge needle (10 times). The resuspended pellet was placed in ice for 10 minutes and then centrifuged at 2400 g for 10 minutes at 4° C. The supernatant (S2) was removed and the pellet (P2) was disrupted in 600 uL of Buffer B supplemented with 0.5% deoxycholate and 0.1% Tween 40. The resuspended pellet was placed in ice for 10 minutes and then centrifuged at 2400 g for 10 minutes at 4° C. The supernatant (S3) fraction, containing the enriched RSV RNP complexes, was collected and the protein concentration determined by UV absorbance at 280 nm. Aliquoted RSV RNP S3 fractions were stored at −80° C.
Transcription reactions contained 25 μg of crude RSV RNP complexes in 30 μL of reaction buffer [50 mM TRIS-acetate (pH 8.0), 120 mM potassium acetate, 5% glycerol, 4.5 mM MgCl2, 3 mM DTT, 2 mM ethyleneglycol-bis(2-aminoethylether)-tetraacetic acid (EGTA), 50 μg/mL BSA, 2.5 U RNasin (Promega), ATP, GTP, UTP, CTP and 1.5 uCi [α-^32P] NTP (3000 Ci/mmol)]. The radiolabled nucleotide used in the transcription assay was selected to match the nucleotide analog being evaluated for inhibition of RSV RNP transcription. […] The three remaining nucleotides were added at a final concentration of 100 μM.
To determine whether nucleotide analogs inhibited RSV RNP transcription, compounds were added using a 6 step serial dilution in 5-fold increments. Following a 90 minute incubation at 30° C., the RNP reactions were stopped with 350 μL of Qiagen RLT lysis buffer and the RNA was purified using a Qiagen RNeasy 96 kit. Purified RNA was denatured in RNA sample loading buffer (Sigma) at 65° C. for 10 minutes and run on a 1.2% agarose/MOPS gel containing 2M formaldehyde. […]

[5] = RSV-induced cytopathic effect, Hep2 cells, RSV strain A2, 4 days, Cell TiterGlo, read-out: EC50

Compound: N#C[C@@]1(c2ccc3c(N)ncnn23)O[C@H](CO)[C@@H](O)[C@H]1O [Compound 1, (2R, 3R, 4S, 5R)-2-(4-aminopyrrolo[1,2-f][1,2,4]triazin-7-yl)-3,4-dihydroxy (hydroxymethyl)tetrahydrofuran-2-carbonitrile]
- EC50 (RSV strain A2; [5]): 0.48 µM
- CC50 at 7 days [1]: > 30 µM
- CC50 at 4 days [2]: > 100 µM
- IC50 [3]: 1.71 µM

Compound: C[C@@]1(c2ccc3c(N)ncnn23)O[C@H](COP(=O)(O)OP(=O)(O)OP(=O)(O)O)[C@@H](O)[C@H]1F [Compound 6, ((2R, 3R, 4R, 5S)-5-(4-aminopyrrolo[1,2-f][1,2,4]triazin-7-yl)-4-fluoro-3-hydroxy-5-methyltetrahydrofuran-2-yl)methyl Tetrahydrogen Triphosphate]
- IC50 [4]: 3.6 µM

Compound: CCOC(=O)[C@H](C)NP(=O)(OC[C@H]1O[C@@](C#N)(c2ccc3c(N)ncnn23)[C@H](O)[C@@H]1O)Oc1ccccc1 (stereo partly drawn) [Compound 10, (2S)-ethyl 2-((((2R,3S,4R,5R)-5-(4-aminopyrrolo[1,2-f][1,2,4]triazin-7-yl)cyano-3,4-dihydroxytetrahydrofuranyl)methoxy)(phenoxy)phosphorylamino)propanoate]
- EC50 (RSV strain A2): 0.18 µM
- CC50 at 4 days [2]: 47 µM

Compound: CCOC(=O)[C@H](C)NP(=O)(N[C@@H](C)C(=O)OCC)OC[C@H]1O[C@@](C#N)(c2ccc3c(N)ncnn23)[C@H](O)[C@@H]1O [Compound 12, (2S,2'S)-diethyl 2,2′-((((2R,3S,4R,5R)-5-(4-aminopyrrolo[1,2-f][1,2,4]triazinyl)-5-cyano-3,4-dihydroxytetrahydrofuranyl)methoxy)phosphoryl)bis(azanediyl)dipropanoate]
- EC50 (RSV strain A2; [5]): 6.5 µM
- CC50 at 4 days [2]: > 100 µM

Compound: C#C[C@@]1(c2ccc3c(N)ncnn23)O[C@H](CO)[C@@H](O)[C@H]1O [Compound 13, (2S,3R,4S,5R)-2-(4-aminopyrrolo[1,2-f][1,2,4]triazin-7-yl)-2-ethynyl (hydroxymethyl)tetrahydrofuran-3,4-diol]
- EC50 (RSV strain A2; [5]): 34 µM
- CC50 at 4 days [2]: > 100 µM

Compound: C[C@@]1(c2ccc3c(N)ncnn23)O[C@H](CO)[C@@H](O)[C@H]1O [Compound 14]
- EC50 (RSV strain A2; [5]): 2.7 µM
- CC50 at 7 days [1]: > 30 µM
- CC50 at 4 days [2]: 92 µM
- IC50 [3]: 5.23 µM

Compound: CC(C)(C)C(=O)SCCOP(=O)(OCCSC(=O)C(C)(C)C)OC[C@H]1O[C@@](C#N)(c2ccc3c(N)ncnn23)[C@H](O)[C@@H]1O [Compound 15, S,S′-2,2′-((((2R,3S,4R,5R)-5-(4-aminopyrrolo[1,2-f][1,2,4]triazin-7-yl)-5-cyano-3,4-dihydroxytetrahydrofuran-2-yl)methoxy)phosphoryl)bis(oxy)bis(ethane-2,1-diyl) bis(2,2-dimethylpropanethioate)]
- EC50 (RSV strain A2; [5]): 0.15 µM
- CC50 at 4 days [2]: > 100 µM

Compound: C#C[C@@]1(c2ccc3c(N)ncnn23)O[C@H](COP(=O)(OCCSC(=O)C(C)(C)C)OCCSC(=O)C(C)(C)C)[C@@H](O)[C@H]1O [Compound 16, S,S′-2,2′-((((2R, 3S, 4R, 5S)-5-(4-aminopyrrolo[1,2-f][1,2,4]triazin-7-yl)-5-ethynyl-3,4-dihydroxytetrahydrofuran-2-yl)methoxy)phosphoryl)bis(oxy)bis(ethane-2,1-diyl) bis(2,2-dimethylpropanethioate)]
- EC50 (RSV strain A2): 3.3 µM
- CC50 at 4 days [2]: > 100 µM

Compound: C#C[C@@]1(c2ccc3c(N)ncnn23)O[C@H](COP(=O)(O)OP(=O)(O)OP(=O)(O)O)[C@@H](O)[C@H]1O [Compound 18, ((2R, 3S, 4R, 5S)-5-(4-aminopyrrolo[1,2-f][1,2,4]triazin-7-yl)-5-ethynyl-3,4-dihydroxytetrahydrofuran-2-yl)methyl tetrahydrogen triphosphate]
- IC50 [4]: 1.6 µM

Compound: C[C@@]1(c2ccc3c(N)ncnn23)O[C@H](COP(=O)(O)OP(=O)(O)OP(=O)(O)O)[C@@H](O)[C@H]1O [Compound 19, ((2R, 3S, 4R, 5S)-5-(4-aminopyrrolo[1,2-f][1,2,4]triazin-7-yl)-3,4-dihydroxymethyltetrahydrofuran-2-yl)methyl Tetrahydrogen Triphosphate]
- IC50 [4]: 1.5 µM

Compound: N#C[C@@]1(c2ccc3c(N)ncnn23)O[C@H](COP(=O)(O)OP(=O)(O)OP(=O)(O)O)[C@@H](O)[C@H]1F [Compound 20, ((2R,3R,4R,5R)-5-(4-aminopyrrolo[1,2-f][1,2,4]triazin-7-yl)-5-cyano-4-fluoro-3-hydroxytetrahydrofuran-2-yl)methyl Tetrahydrogen Triphosphate]
- IC50 [4]: 0.8 µM
